For orientation: inhibition means how much of the control response was suppressed. Read a low inhibition as little suppression.

Each structure is given as a SMILES string.

T1 sequence (P08684 whole entry): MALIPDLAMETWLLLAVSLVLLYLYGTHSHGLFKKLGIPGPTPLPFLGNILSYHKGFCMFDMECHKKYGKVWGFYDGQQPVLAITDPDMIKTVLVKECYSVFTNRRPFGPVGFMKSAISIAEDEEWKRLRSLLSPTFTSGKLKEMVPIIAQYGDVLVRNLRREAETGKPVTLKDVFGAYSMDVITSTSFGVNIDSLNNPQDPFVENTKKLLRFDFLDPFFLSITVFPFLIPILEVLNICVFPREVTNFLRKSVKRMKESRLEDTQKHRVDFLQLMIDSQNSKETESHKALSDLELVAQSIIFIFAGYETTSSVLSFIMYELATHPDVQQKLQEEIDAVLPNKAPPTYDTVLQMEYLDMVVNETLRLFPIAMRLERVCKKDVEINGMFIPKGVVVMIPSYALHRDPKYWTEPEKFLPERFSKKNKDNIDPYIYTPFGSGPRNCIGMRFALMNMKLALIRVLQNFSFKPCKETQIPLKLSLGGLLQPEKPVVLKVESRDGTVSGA

This series has as its target T1, CYP3A4 (Homo sapiens, UniProt P08684).
T1 construct: pre-incubated with human liver microsomes and NADPH; from tissue; host or cells: human liver microsomes
Nature of the series: Cytochrome P450 inhibition assay (midazolam hydroxylation). The series is classed as in vitro ADME. The settings on record: human, human liver microsomes, probe midazolam (hydroxylation to 1′-hydroxymidazolam), 10 μM test compound, midazolam at approximately its Km. On the procedure: Compounds were tested for the potential to induce drug-drug interactions by inhibition of the cytochrome P450 3A4 isoform. The assay evaluated the metabolism of a specific marker substrate (CYP3A4, midazolam hydroxylation to 1′-hydroxymidazolam) in the presence or absence of 10 μM test compound. The concentration of the marker substrate was approximately its Km (Dixit et al., Biopharm. Drug Dispos. 2007, 28(5), 257-262). A specific inhibitor for the isoform was included in each run to validate the system. An appropriate positive control inhibitor was used. Mechanism-based inhibition was investigated where warranted using a classical method. To evaluate time-dependent inhibition, parallel samples may have been included where […] was pre-incubated with human liver microsomes and NADPH for 30 min prior to the addition of the P450 substrate. The percent inhibition of the pre-incubated and non-pre-incubated samples were compared as a preliminary evaluation of time-dependent inhibition.
Consider `Cc1ccc(-c2nccs2)c(C(=O)N2CCC[C@@H](C)[C@H]2CNc2nc3cc(Cl)ccc3o2)c1` [Example A30, ((2S,3R)-2-(((5-Chlorobenzo[d]oxazol-2-yl)amino)methyl)-3-methylpiperidin-1-yl)(5-methyl-2-(thiazol-2-yl)phenyl)methanone], for which the inhibition at 10 µM is 97%. Then `Cc1ccc(-c2ccccn2)c(C(=O)N2CCC[C@@H](C)[C@H]2CNc2nc3cc(Cl)ccc3o2)c1` [Example A32, ((2S,3R)-2-(((5-Chlorobenzo[d]oxazol-2-yl)amino)methyl)-3-methylpiperidin-1-yl)(5-methyl-2-(pyridin-2-yl)phenyl)methanone], with 92%; and `Cc1ccc(-n2cccn2)c(C(=O)N2CCC[C@@H](C)[C@H]2CNc2ccc(C#N)cn2)c1` [Example A155, 6-((((2S,3R)-3-Methyl-1-(5-methyl-2-(1H-pyrazol-1-yl)benzoyl)piperidin-2-yl)methyl)amino)nicotinonitrile], with 72%. Then `Cc1ccc(-c2cccnn2)c(C(=O)N2CCC[C@@H](C)[C@H]2CNc2ncc(C(F)(F)F)cn2)c1` [Example A198, ((2S,3R)-3-Methyl-2-(((5-(trifluoromethyl)pyrimidin-2-yl)amino)methyl)piperidin-1-yl)(5-methyl-2-(pyridazin-3-yl)phenyl)methanone], with 51%. Take `Cc1ccc(-c2ncccn2)c(C(=O)N2CCC[C@@H](C)[C@H]2CNc2ccc(C(F)(F)F)cn2)n1` [Example A183, ((2S,3R)-3-Methyl-2-(((5-(trifluoromethyl)pyridin-2-yl)amino)methyl)piperidin-1-yl)(6-methyl-3-(pyrimidin-2-yl)pyridin-2-yl)methanone]: the inhibition at 10 µM is 49%. `C[C@@H]1CCCN(C(=O)c2c(F)cccc2-c2ncccn2)[C@@H]1CNc1ccc(C(F)(F)F)cn1` [Example A241, (2-Fluoro-6-(pyrimidin-2-yl)phenyl)((2S,3R)-3-methyl-2-(((5-(trifluoromethyl)pyridin-2-yl)amino)methyl)piperidin-1-yl)methanone] gave an inhibition at 10 µM of 62%. Then `COc1cccnc1NC[C@@H]1[C@H](C)CCCN1C(=O)c1cc(C)ccc1-c1cnn(C)c1` [Example A101, ((2S,3R)-2-(((3-Methoxypyridin-2-yl)amino)methyl)-3-methylpiperidin-1-yl)(5-methyl-2-(1-methyl-1H-pyrazol-4-yl)phenyl)methanone], with 83%.

In turn, `Cc1ccc(-c2cnn(C)c2)c(C(=O)N2CCC[C@@H](C)[C@H]2CNc2ncc(C(F)(F)F)cc2F)c1` [Example A83, ((2S,3R)-2-(((3-Fluoro-5-(trifluoromethyl)pyridin-2-yl)amino)methyl)-3-methylpiperidin-1-yl)(5-methyl-2-(1-methyl-1H-pyrazol-4-yl)phenyl)methanone] had an inhibition at 10 µM of 97%. Then `Cc1ccc(-n2nccn2)c(C(=O)N2CCC[C@@H](C)[C@H]2CNc2nc(C)cs2)c1` [Example A124, ((2S,3R)-3-Methyl-2-(((4-methylthiazol-2-yl)amino)methyl)piperidin-1-yl)(5-methyl-2-(2H-1,2,3-triazol-2-yl)phenyl)methanone], with 55%.

Compound `Cc1ccc(-n2nccn2)c(C(=O)N2CCC[C@@H](C)[C@H]2CNc2ccc(C3CC3)cn2)c1` [Example A136, ((2S,3R)-2-(((5-Cyclopropylpyridin-2-yl)amino)methyl)-3-methylpiperidin-1-yl)(5-methyl-2-(2H-1,2,3-triazol-2-yl)phenyl)methanone] registered an inhibition at 10 µM of 91%.

As to `Cc1ccc(-c2cnn(C)c2)c(C(=O)N2CCC[C@@H](C)[C@H]2CNc2ccc(C(F)(F)F)cn2)n1` [Example A74, ((2S,3R)-3-Methyl-2-(((5-(trifluoromethyl)pyridin-2-yl)amino)methyl)piperidin-1-yl)(6-methyl-3-(1-methyl-H-pyrazol-4-yl)pyridin-2-yl)methanone], the inhibition at 10 µM was 74%.

In turn, `Cc1cc(F)c(-c2ncccn2)c(C(=O)N2CCC[C@@H](C)[C@H]2CNc2ccc(C(F)(F)F)cn2)c1` [Example A374, (3-fluoro-5-methyl-2-(pyrimidin-2-yl)phenyl)((2S,3R)-3-methyl-2-(((5-(trifluoromethyl)pyridin-2-yl)amino)methyl)piperidin-1-yl)methanone] displayed an inhibition at 10 µM of 76%. `Cc1nc(C(=O)N2CCC[C@@H](C)[C@H]2CNc2nc3cc(F)ccc3o2)c(-c2ccc(F)cc2)s1` [Example A15, ((2S,3R)-2-(((5-Fluorobenzo[d]oxazol-2-yl)amino)methyl)-3-methylpiperidin-1-yl) (5-(4-fluorophenyl)-2-methylthiazol-4-yl)methanone] gave an inhibition at 10 µM of 78%.

In turn, `Cc1ccc(-c2cnn(C)c2)c(C(=O)N2CCC[C@@H](C)[C@H]2CNc2cccc(C(F)(F)F)n2)c1` [Example A94, ((2S,3R)-3-Methyl-2-(((6-(trifluoromethyl)pyridin-2-yl)amino)methyl)piperidin-1-yl)(5-methyl-2-(1-methyl-1H-pyrazol-4-yl)phenyl)methanone] showed an inhibition at 10 µM of 99%. With `Cc1ccc(-n2nccn2)c(C(=O)N2CCC[C@@H](C)[C@H]2CNc2ncc3ccc(C)cc3n2)c1` [Example A215, ((2S,3R)-3-Methyl-2-(((7-methylquinazolin-2-yl)amino)methyl)piperidin-1-yl)(5-methyl-2-(2H-1,2,3-triazol-2-yl)phenyl)methanone] the figure was 67%; with `C[C@@H]1CCCN(C(=O)c2cc(F)c(F)cc2-n2nccn2)[C@@H]1CNc1ccc(Cl)cn1` [Example A246, ((2S,3R)-2-(((5-Chloropyridin-2-yl)amino)methyl)-3-methylpiperidin-1-yl)(4,5-difluoro-2-(2H-1,2,3-triazol-2-yl)phenyl)methanone], 69%; with `Cc1ccc(-c2cnn(C)c2)c(C(=O)N2CCC[C@@H](C)[C@H]2CNc2cccc(C#N)n2)c1` [Example A86, 6-((((2S,3R)-3-Methyl-1-(5-methyl-2-(1-methyl-1H-pyrazol-4-yl)benzoyl)piperidin-2-yl)methyl)amino)picolinonitrile], 95%. With `Cc1ccc(NC[C@@H]2[C@H](C)CCCN2C(=O)c2cc(C)ccc2-n2nccn2)nc1` [Example A48, ((2S,3R)-3-Methyl-2-(((5-methylpyridin-2-yl)amino)methyl)piperidin-1-yl)(5-methyl-2-(2H-1,2,3-triazol-2-yl)phenyl)methanone] the figure was 74%; with `C[C@@H]1CCCN(C(=O)c2c(F)cccc2-c2ncccn2)[C@@H]1CNc1ncc(C(F)(F)F)cn1` [Example A240, (2-Fluoro-6-(pyrimidin-2-yl)phenyl)((2S,3R)-3-methyl-2-(((5-(trifluoromethyl)pyrimidin-2-yl)amino)methyl)piperidin-1-yl)methanone], 42%; with `Cc1ccc(-c2ncccn2)c(C(=O)N2CCC(F)(F)C[C@H]2CNc2ncc(C(F)(F)F)cn2)c1` [Example A312, (S)-(4,4-Difluoro-2-(((5-(trifluoromethyl)pyrimidin-2-yl)amino)methyl)piperidin-1-yl)(5-methyl-2-(pyrimidin-2-yl)phenyl)methanone], 40%.
